The source of these data is ChEMBL document CHEMBL1201862, “PubChem BioAssay data set” (2004).

Some test systems named below: SN12C; MOLT-4; IGROV-1; OVCAR-3; COLO 205; HL-60; HCT-15; SK-MEL-28; M14; HOP-92; Malme-3M; LOX IMVI; CAKI-1; SF-268; A549; OVCAR-8; UACC-62; NCI-H23; CCRF-CEM; HT-29.
What all share (experiment): NCI tumour cell line growth inhibition, 48 h

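48-hour exposure; five concentrations; linearly interpolated endpoints. Abbreviation: GI50, concentration required for 50% inhibition of growth.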 Calls of active or inactive are those of the source. Rule as the data show it: active = GI50 up to about 1.1 µM and inactive = higher.

With `COC1=C2CC(C)CC(OC)C(OC(=O)CN)[C@H](C)/C=C(\C)C(OC(N)=O)C(OC)/C=C\C=C(/C)C(=O)NC(=CC1=O)C2=O` (stereo partly specified), the GI50 in the assay on SN12C was 0.412 µM (active); in the assay with MOLT-4, 0.344 µM (active); with IGROV-1, 0.453 µM (active); in the assay on OVCAR-3 it was 0.481 µM (active); in the assay on COLO 205, 0.0562 µM (active); in the assay with HL-60 it was 0.123 µM (active). The GI50 is 0.899 µM in the assay on HCT-15; 0.161 µM (active) with SK-MEL-28; 0.451 µM (active) in the assay on M14; 0.163 µM (active) in the assay with HOP-92; 0.351 µM (active) in the assay on Malme-3M; 0.284 µM (active) in the assay with LOX IMVI. In addition, the GI50 was 1.46 µM (inactive) in the assay on CAKI-1; 3.44 µM (inactive) in the assay with SF-268; 9.73 µM (inactive) with A549; 0.94 µM (active) with OVCAR-8; 0.468 µM (active) in the assay with UACC-62; 0.369 µM (active) with NCI-H23. The GI50 in the assay with CCRF-CEM is 0.299 µM (active); in the assay with HT-29, 0.306 µM (active).

Consider `Cc1ccc2[nH]c3c(C)c4ccncc4c(C)c3c2c1`, for which the GI50 in the assay on SN12C is 0.449 µM (active); in the assay with MOLT-4 it was 0.231 µM (active); with IGROV-1, 0.944 µM (active); in the assay with OVCAR-3, 1.12 µM (active); in the assay on COLO 205, 0.873 µM (active); with HL-60 it was 1.22 µM (inactive). Besides, the GI50 is 0.63 µM in the assay with HCT-15; 1.55 µM (inactive) in the assay with SK-MEL-28; 1.67 µM (inactive) with M14; 0.553 µM (active) in the assay on HOP-92; 1.9 µM (inactive) in the assay with Malme-3M; 0.871 µM (active) in the assay with LOX IMVI. For the same compound, the GI50 in the assay with CAKI-1 is 0.906 µM (active); in the assay on SF-268, 0.733 µM (active); with A549, 0.966 µM (active); with OVCAR-8, 0.328 µM (active); in the assay with UACC-62 it was 1.62 µM (inactive); in the assay with NCI-H23, 1.24 µM (inactive). Moreover, the GI50 in the assay on CCRF-CEM is 0.242 µM (active); in the assay with HT-29, 1.06 µM (active).

Turning to `Cc1ccc([N+](=O)[O-])cc1S(=O)(=O)Nc1ccc(C2=NNC(c3ccccc3O)C2)cc1` (stereo unspecified), the GI50 was 23.9 µM (inactive) in the assay on SN12C; 24.1 µM (inactive) with MOLT-4; 40.7 µM (inactive) with IGROV-1; 13.5 µM (inactive) in the assay on OVCAR-3; 24.7 µM (inactive) in the assay with COLO 205; 12.1 µM (inactive) with HL-60. In addition, the GI50 with HCT-15 was 21.2 µM; in the assay with SK-MEL-28, 26.9 µM (inactive); with M14, 20.7 µM (inactive); with HOP-92 it was 79.3 µM (inactive); in the assay with Malme-3M it was 25.9 µM (inactive); in the assay with LOX IMVI, 34.8 µM (inactive). Also, the GI50 was 25.1 µM (inactive) with CAKI-1; 32.1 µM (inactive) in the assay on SF-268; 24.9 µM (inactive) in the assay with A549; 56 µM (inactive) with OVCAR-8; 17.6 µM (inactive) in the assay with UACC-62; 20.6 µM (inactive) in the assay with NCI-H23. In addition, the GI50 with CCRF-CEM was 16.6 µM (inactive); with HT-29, 28.8 µM (inactive).

In the case of `CN/N=C(\C(=O)Nc1ccc(C)c(C)c1)C(C(=O)OC)c1nc2ccc([N+](=O)[O-])cc2nc1O` (stereo unspecified), the GI50 in the assay on SN12C is > 100 µM (inactive); with MOLT-4 it was > 100 µM (inactive); with IGROV-1, > 100 µM (inactive); with COLO 205, > 100 µM (inactive); in the assay with HL-60, 50.9 µM (inactive); with HCT-15, 85.1 µM. For the same compound, the GI50 with SK-MEL-28, in the assay on M14, in the assay on HOP-92, with LOX IMVI, in the assay with CAKI-1 and in the assay on SF-268 was > 100 µM (inactive) throughout. Also, the GI50 is > 100 µM (inactive) with A549; > 100 µM (inactive) in the assay on OVCAR-8; 83.8 µM (inactive) in the assay on UACC-62; > 100 µM (inactive) in the assay with NCI-H23; > 100 µM (inactive) with CCRF-CEM; > 100 µM (inactive) in the assay with HT-29.

Consider `O=C(CCl)NNC1=Nc2ccc(Cl)cc2SC1`, for which the GI50 was 1.95 µM (inactive) with SN12C; 1.12 µM (active) in the assay with MOLT-4; 1.95 µM (inactive) in the assay with IGROV-1; 1.78 µM (inactive) in the assay with OVCAR-3; 1.94 µM (inactive) in the assay with COLO 205; 1.55 µM (inactive) in the assay with HL-60. The GI50 in the assay with HCT-15 was 1.81 µM; in the assay on SK-MEL-28, 2.03 µM (inactive); with HOP-92, 1.63 µM (inactive); with Malme-3M, 1.69 µM (inactive); with LOX IMVI, 1.14 µM (inactive); in the assay on SF-268, 1.69 µM (inactive). Besides, the GI50 in the assay on A549 is 9.33 µM (inactive); in the assay with OVCAR-8, 1.4 µM (inactive); in the assay with UACC-62, 2.12 µM (inactive); with NCI-H23 it was 2.47 µM (inactive); in the assay with CCRF-CEM, 0.612 µM (active); with HT-29, 1.85 µM (inactive).

On to `COC(Cc1cc(C(O)(c2ccc(C(C)(C)C)cc2)c2cc(CC(OC)(c3cc(C(OC)(c4ccc(C(C)(C)C)cc4)c4ccc(C(C)(C)C)cc4)c(C)cc3C)c3cc(C(OC)(c4ccc(C(C)(C)C)cc4)c4ccc(C(C)(C)C)cc4)c(C)cc3C)c(C)cc2C)c(C)cc1C)(c1cc(C(OC)(c2ccc(C(C)(C)C)cc2)c2ccc(C(C)(C)C)cc2)c(C)cc1C)c1cc(C(OC)(c2ccc(C(C)(C)C)cc2)c2ccc(C(C)(C)C)cc2)c(C)cc1C`, for which the GI50 in the assay on SN12C, in the assay with MOLT-4, in the assay on IGROV-1, with OVCAR-3, with COLO 205 and in the assay on HL-60 was > 75 µM (inactive) each time. Moreover, the GI50 with HCT-15 was above 75 µM; with SK-MEL-28, > 75 µM (inactive); in the assay on M14, > 75 µM (inactive); in the assay with HOP-92, > 75 µM (inactive); in the assay with Malme-3M it was > 75 µM (inactive); in the assay on LOX IMVI, > 75 µM (inactive). The GI50 in the assay with CAKI-1, with SF-268, with A549, in the assay with OVCAR-8, in the assay with UACC-62 and in the assay on NCI-H23 was > 75 µM (inactive) each time. Also, the GI50 in the assay on CCRF-CEM and in the assay on HT-29 was > 75 µM (inactive) throughout.
